Source: publication PMC10980208, “A novel micellular fluorogenic substrate for quantitating the activity of 1-phosphatidylinositol 4,5-bisphosphate phosphodiesterase gamma (PLCγ) enzymes” (PLOS ONE, 2024)

Biological target: T1, PLCγ2-P522R (Homo sapiens, UniProt P16885, P522R)
T1 construct: gene PLCG2
T1 sequence (P16885 1-1195 P522R): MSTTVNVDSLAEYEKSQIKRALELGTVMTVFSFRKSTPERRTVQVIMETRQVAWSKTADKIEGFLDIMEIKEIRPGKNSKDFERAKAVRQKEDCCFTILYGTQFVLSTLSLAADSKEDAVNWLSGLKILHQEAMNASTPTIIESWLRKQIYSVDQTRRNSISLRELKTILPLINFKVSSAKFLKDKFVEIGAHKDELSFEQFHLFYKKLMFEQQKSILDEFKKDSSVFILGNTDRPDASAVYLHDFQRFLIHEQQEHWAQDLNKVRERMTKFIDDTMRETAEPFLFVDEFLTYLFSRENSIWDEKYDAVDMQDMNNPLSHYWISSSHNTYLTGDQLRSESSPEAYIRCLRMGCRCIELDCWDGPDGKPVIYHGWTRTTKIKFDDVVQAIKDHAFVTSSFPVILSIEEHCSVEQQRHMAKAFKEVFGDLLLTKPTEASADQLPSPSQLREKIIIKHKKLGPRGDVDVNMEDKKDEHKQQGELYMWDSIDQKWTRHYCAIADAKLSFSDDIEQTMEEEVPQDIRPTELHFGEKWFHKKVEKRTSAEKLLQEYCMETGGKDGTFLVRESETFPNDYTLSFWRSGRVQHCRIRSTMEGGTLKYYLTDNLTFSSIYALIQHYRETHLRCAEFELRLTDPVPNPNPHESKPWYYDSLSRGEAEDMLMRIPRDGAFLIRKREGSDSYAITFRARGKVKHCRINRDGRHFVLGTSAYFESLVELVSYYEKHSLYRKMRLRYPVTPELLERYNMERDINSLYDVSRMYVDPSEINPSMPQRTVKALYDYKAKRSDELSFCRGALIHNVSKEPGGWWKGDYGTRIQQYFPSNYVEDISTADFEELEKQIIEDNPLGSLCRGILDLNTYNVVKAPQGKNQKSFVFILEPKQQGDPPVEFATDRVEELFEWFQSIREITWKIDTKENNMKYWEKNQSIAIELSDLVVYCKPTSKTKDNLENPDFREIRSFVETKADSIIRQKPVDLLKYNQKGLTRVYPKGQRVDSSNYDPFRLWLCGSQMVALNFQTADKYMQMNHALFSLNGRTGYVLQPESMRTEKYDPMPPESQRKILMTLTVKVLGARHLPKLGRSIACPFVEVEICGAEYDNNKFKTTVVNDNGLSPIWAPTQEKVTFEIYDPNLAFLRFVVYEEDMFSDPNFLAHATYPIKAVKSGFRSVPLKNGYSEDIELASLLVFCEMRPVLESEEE
Experiment: fluorogenic micelle enzyme assay
Format: biochemical

SMILES: CCCCCCCCCCCCCCCCOc1cc(COC(=O)Nc2ccc3c(C(F)(F)F)cc(=O)oc3c2)ccc1OP(=O)(O)O[C@@H]1[C@H](O)[C@H](O)[C@@H](OP(=O)(O)O)[C@H](OP(=O)(O)O)[C@H]1O [C16CF3-coumarin]
- fluorogenic micelle enzyme assay: both PLCγ1-D1665H and PLCγ2-P522R were able to process the C16CF3-coumarin substrate faster than the corresponding wild-type enzymes
